The source of these data is patent US11802107B2, “Compounds and methods of use” (Signum Biosciences, Inc., priority 2017, dated 2023).

pIC50: −log10 of the molar value.

One test relates to IL-10. The experiment in a line: T-cell receptor (anti-CD3/CD28)-induced IL-10 on PBMCs. Type of test: cell-based. To be noted: Homo sapiens, PBMC, anti-CD3/CD28 beads, 24 hours, ELISA, read-out: TCR-PBMCs IL-10 Protein IC50. The method, then: Cryopreserved human Peripheral Blood Mononuclear cells (PBMCs) from healthy adult donors were obtained from Zen Bio, Inc (Cat No. SER-PBMC-F). Cells were cultured in 96-well plates with lymphocyte media (Cat No. LYMPH-1) and were pre-treated with test materials (≤100 μM) for 2 hours and later co-treated with test materials and anti-CD3/CD28 beads (Thermo-Fisher; Cat No. 11131D) at 1:0.4 PBMC:bead ratio for 24 hours at 37° C. and 5% CO2. After incubation, cell media supernatants were harvested and used to measure cytokine levels (IL-4, IL-5, IL-10) using ELISA kits (BD Biosciences® #555194, #555157; R&D Systems® #DY317). Results were represented as percent of inhibition relative to untreated and anti-CD3/CD28 beads-only treated cells. IC50 values were determined by non-linear regression analysis using the four-parameter logistic equation.
(In general: In an ELISA, binding on a coated surface is turned into a signal by an enzyme label.)

Test [1] deals with IL-17. The experiment in a line: Concanavalin-A-induced IL-17 on PBMCs. Type of test: cell-based. Conditions: Homo sapiens, PBMC, ConA, 24 hours, ELISA.
For the next test, the system named is IL-23. The test is described as follows: LPS/IFNγ-induced IL-23 on CD14+ monocytes. Format: cell-based. To be noted: Homo sapiens, Monocyte, 50 μg/mL LPS + 5 μg/mL IFNγ, 24 hours, ELISA. Here is the method: Cryopreserved human peripheral blood monocytes cells (CD14+) from healthy adult donors were obtained from Zen Bio, Inc (Cat No. SER-CD4-F). Cells were cultured in 96-well plates with lymphocyte media (Cat No. LYMPH-1) and were pre-treated with test materials (≤100 μM) for 2 hours and later co-treated with test materials and 50 μg/mL LPS, 5 μg/mL IFNγ (Sigma Aldrich, Cat No. L4321, SRP3058) and incubated for 24 hours at 37° C. and 5% CO2. After incubation, cell media supernatants were harvested and used to measure cytokine levels (IL-23) using ELISA kits (R&D Systems® #DY1290). Results were represented as percent of inhibition relative to untreated and […] treated cells. IC50 values were determined by non-linear regression analysis using the four-parameter logistic equation.

Test [2] has as its system IL-17. The experiment in a line: P. acnes-induced IL-17 protein on human PBMCs (ELISA). Type of test: cell-based. To be noted: PBMC, PBMCs + live P. acnes 1:1, test material 30 PM, 24 hours. The method, then: (§1) Cryopreserved human Peripheral Blood Mononuclear cells (PBMCs) from healthy adult donors were obtained from Zen Bio, Inc (Cat No. SER-PBMC-F). Cells were cultured in 12-well plates with lymphocyte media (Cat No. LYMPH-1) and incubated with test materials ([…]) and live P. acnes (ATCC® 6919TM) at 1:1 PBMC: P. acnes bacteria ratio for 24 hours at 37° C. and 5% CO2. After incubation, cell media supernatants were harvested and used to measure pro-inflammatory cytokine levels (IL-8, TNF-α, IL-1b, IL-17) using ELISA kits (BD Biosciences® #557966, #555212, #555244; R&D Systems® #DY317). Total RNA was extracted from cells using the RNAqueous® kit (Ambion®; Cat No. 1912) and cDNA was obtained using the High Capacity RNA-to-cDNA kit (Applied Biosystems®; Cat No. 4387406). Quantitative PCR (qPCR) was performed using the TaqMan® Fast Advanced Master Mix (Applied Biosystems®; Cat No. 4444556) and specific TaqMan®-probes human gene primers CXCL8 (IL-8), IL1B (IL-1b), TNF (TNF-α), IL17A (IL-17A) and GAPDH to calculate the relative gene fold expression change per treatment. Gene expression analysis was performed using the comparative Ct method (also known as the 2-[delta][delta]Ct) approach by comparing the Ct values of P. acnes-only treated cells with the untreated samples and normalized to GAPDH gene expression as endogenous housekeeping gene.

The subject of test [3] is P. acnes (ATCC 6919) biofilms. The experiment in a line: P. acnes biofilm eradication (MBEC), crystal violet. Format: cell-based, Propionibacterium acnes. Conditions: 24 hours, ≥80% eradication vs vehicle. Here is the method:
P. acnes (ATCC® 6919™) was cultured as described above. Bacteria biofilms were established by seeding P. acnes cultures in 96-well plates and incubating for 24 hours without agitation. Later, biofilms were incubated with test materials for 24 hours. Remaining biofilms were washed and stained with crystal violet. […] The absorbance was measured at 595 nm in a microplate reader. […] Results from disk diffusion susceptibility testing (Kirby-Bauer Method) after 72 hours incubation were also obtained.

The next test relates to IL17A (IL-17A). The test is described as follows: P. acnes-induced IL-17 gene on human PBMCs (qPCR). Type of test: cell-based. To be noted: PBMC, PBMCs + live P. acnes 1:1, test material 30 PM, 24 hours. The method, then:
as §1
In general terms: Quantitative PCR measures a nucleic acid by following its amplification.

A further test relates to IL-8. The test is described as follows: Peptidoglycan (PGN)-induced IL-8 on NHEKs. Format: cell-based, human. To be noted: for pIC50: Homo sapiens, NHEK, PGN 10 μg/mL, 24 hours, ELISA, read-out: PGN-NHEK 1L-8 Protein IC50; for PGN-induced IL-8 production: cultured human keratinocytes exposed to peptidoglycan (PGN). The method, then:
Normal human epidermal keratinocytes (NHEKs) from neonatal donors were obtained from Thermo-Fisher (Cat No. C-001-5C). Cells were cultured in 96-well plates for 24 hours with EpiLife media (Cat No. MEPI500CA) supplemented with keratinocytes growth supplement (Cat No. S0015). On Day 2, media was removed and replaced with supplement-depleted medium for 24 hours. On Day 3, media was removed and cells were pre-treated with test materials (≤1 μM) for 2 hours and later co-treated with test materials and PGN (Sigma Aldrich, Cat No. 77140) at 10 μg/mL and incubated for 24 hours at 37° C. and 5% CO2. PGN is a TLR-2 agonist. After incubation, cell media supernatants were harvested and used to measure pro-inflammatory cytokine levels (IL-8) using ELISA kit (BD Biosciences® #555244). Results were represented as percent of inhibition relative to untreated and PGN-only treated cells. IC50 values were determined by non-linear regression analysis using the four-parameter logistic equation.

`N#Cc1ccc(Oc2ccc3c(c2)COB3O)cc1` [AN2728, reference compound]: the pIC50 in the test with IL-10 was 5.05; in the test with IL-17 [1], 5.51; in the test with IL-23, 6.19.
`C/C(=C\CSCC(NC(=O)NCC(=O)O)C(=O)O)CCCC(C)CCCC(C)CCCC(C)C` (stereo not shown) [A]: the inhibition at 30 pM in the test with IL-17 [2] is 32%. In addition, in the test on IL-10, the pIC50 was 4.38.
With `C/C(=C\CSC[C@H](NC(=O)N(C)CC(=O)O)C(=O)O)CCCC(C)CCCC(C)CCCC(C)C` (stereo partly drawn) [Compound C, (2R)-2-{[(carboxymethyl)(methyl)carbamoyl]amino}-3-{[(2E)-3,7,11,15-tetramethylhexadec-2-en-1-yl]sulfanyl}propanoic acid], the MBEC in test [3] came to 9 µg/mL. The inhibition at 30 pM with IL-17 [2] and in the test on IL17A (IL-17A) was 0% each time. In addition, the negative-log IC50 (pIC50) with IL-8 was 6.60; with IL-10, 4.47; with IL-17 [1] it was 6.30; in the test on IL-23, 6.72.
On to `C/C(=C\CSC[C@H](NC(=O)N1CCC[C@H]1C(=O)O)C(=O)O)CCCC(C)CCCC(C)CCCC(C)C` (stereo partly shown) [Compound E], for which the MBEC in test [3] was 12 μg/mL and (21) μM. The values for the inhibition at 30 pM with IL-17 [2] and with IL17A (IL-17A) were 23% and 0%, respectively. The pIC50 in the test with IL-8 was 6.60; in the test on IL-10, 4.41; with IL-17 [1], 4.94; in the test with IL-23, 4.95. Moreover, the “PGN-induced IL-8 production” value in the test on IL-8 was “inhibit IL-8 production”.
As for `C/C(=C\CSCC(NC(=O)N(CC(=O)O)CC(=O)O)C(=O)O)CCCC(C)CCCC(C)CCCC(C)C` (stereo not shown) [Compound G], the MBEC in test [3] was 7 μg/mL and (11) μM. The inhibition at 30 pM with IL-17 [2] is 29%; with IL17A (IL-17A) it was 0%. The pIC50 with IL-8 was 7.30; in the test with IL-17 [1], 4.03; in the test on IL-23, 5.51. Moreover, the “PGN-induced IL-8 production” value in the test with IL-8 is given as “inhibit IL-8 production”.
Turning to `C/C(=C\CSC[C@H](NC(=O)COCC(=O)O)C(=O)O)CCCC(C)CCCC(C)CCCC(C)C` (stereo partly shown) [Compound T], the inhibition at 30 pM with IL17A (IL-17A) was determined as 0%. Further, the pIC50 in the test with IL-10 is 4.72; in the test on IL-17 [1], 4.16; in the test with IL-23, 7.30.

The pIC50 is the negative decadic logarithm of the IC50, by convention in mol/L. In general, inhibition refers to how much of the control response was suppressed.
